Experimental findings from patent US8685726B2, “Small molecules supporting pluripotent cell growth and methods thereof” (Viacyte, Inc., priority 2009, dated 2014) are described below.

For one test, the system named is hES cells. Put plainly: Low-density real-time cell index monitoring (RT-CES impedance reader). In kind it is cell-based, human. As to conditions: for time after plating at which cell index rises above background / expansion detectable: 50 μM each factor; for time after plating at which cell index rises above background / expansion detectable / lowest concentration that elicited an effect: StemPro hESC SFM; for lowest concentration that elicited an effect: titration. As to the method: FIG. 4. Titration of NE and ACh using the RT-CES impedance reader. 1000 hES cells/well were plated in StemPro® hESC SFM containing the indicated concentrations of small molecules (in μM). In such an assay, the timing of when the cell index rises is associated with the proportion of cells that survive and expand at low density.
FIG. 5. Combined effects of small molecules compound combinations in low cell density assays. (A) 1000 hES cells/well were plated in StemPro® hESC SFM containing small molecules at 50 μM (NE, ACh, Adenosine, GABA) or 10 μM (Y27632). The assay was carried out over 5 days using the RT-CES system.
FIG. 6. […] 1000 hES cells/well were plated in StemPro® hESC SFM containing Heregulin, IGF1 and Activin (HIA) and the indicated small molecules. […] Compounds were tested at 10 μM. The DMSO trace is an average of 8 wells. […] Compounds were tested at the indicated concentrations.
FIG. 7. […] 1000 hES cells/well were plated in StemPro® hESC SFM containing the indicated combinations of growth factors and small molecules. Heregulin (H), LR3-IGF1 (I), Activin (A).
FIG. 9. Low-density RT-CES assays of combinations of growth factors and neurotransmitters. 1000 hES cells/well were plated in StemPro® hESC SFM containing the indicated combinations of growth factors and small molecules. Heregulin (H), LR3-IGF1 (I), Activin (A). Small molecules were tested at 50 μM.
Furthermore, pluripotent cells can also be grown in 96-well culture devices that provide real-time measurements of impedance, which can be used to measure cell proliferation and viability using the RT-CES™ methods from ACEA Biosciences, Inc. (www (dot) aceabio (dot) com). Such an approach would enable a label-free identification and quantification of subtle or immediate effects on differentiable cells, as well as measurements of proliferation, apoptosis and changes to morphology, in real time.
To examine more closely the potency of individual neurotransmitters and determine if synergies exist between different factors, low-density assays were performed in real time using an impedance reader. The ACEA biosciences RT-CES system uses 96-well trays that contain embedded microsensors to monitor changes in electrical impedance, which is translated into a measure of cell index. Any overt alteration within a cell culture can be detected, including but not limited to cell proliferation, migration, cell spreading, apoptosis, differentiation and the like. […] Once an undifferentiated culture becomes confluent the cell index remains high, but tends to go down and up (scallop) between daily feedings. Conversely, differentiation is typically indicated by the appearance of distinctive patterns, such as peaks and troughs in the cell index, likely indicative of an epithelial-to-mesenchymal transition, flattening, cell migration, apoptosis or similar differentiation and growth related changes.
Human ES cells were plated at low density, 1000 cells/well, in RT-CES trays and cultured for 10 days (FIG. 4). Cells were plated directly in StemPro® hESC SFM containing carrier control (DMSO), NE, or ACh.

The test system of test [1] is hES cells (e.g., BGO2 cells). Put plainly: Low-density colony forming / colony counting assay (AP+ colonies). In kind it is cell-based, human. As for the experimental part:
FIG. 2. Low density plating assay of hES cells (e.g., BGO2 cells). 10000 cells/well were plated in 6-well trays in StemPro® hESC SFM (Life Technologies) medium and stained with alkaline phosphatase (AP+) after 7 days. Y (Y27632), ACh (acetylcholine), NMDA (N-methyl-D-aspartic acid), NE ((−)-Norepinephrine), NE.Bit ((±)-Norepinephrine (+)-bitartrate). Compounds were added at 10 or 50 μM as indicated.
FIG. 3. Low density plating assay of hES cells. (A) 200-10000 cells/well were plated in […] trays in StemPro® hESC SFM medium, or StemPro® hESC SFM +50 μM NE, or +50 μM ACh, and stained with alkaline phosphatase (AP+) after 8 days. […] ACh (acetylcholine), NE ((±)-Norepinephrine (+)-bitartrate). […]
About 10^4 hES cells/well were plated in 6-well trays in StemPro® hESC SFM, in the presence of different compounds and cultured for about 7 days. The cultures were then fixed, stained for alkaline phosphatase activity and colonies were counted (FIG. 2). […] The (±)-Norepinephrine (+)-bitartrate salt was used for all subsequent experiments involving norepinephrine (NE) unless specifically described otherwise.
A similar colony counting experiment was performed using a range of cell densities (FIG. 3). […] See Robins and Schulz 2009, supra. […]

On to `NCC(O)c1ccc(O)c(O)c1` (racemic) [NE, (±)-Norepinephrine (+)-bitartrate], for which the “effect on low-density survival/proliferation” value in the test with hES cells (1 μM, 1000 cells/well, 10 days) is “did not appear to affect low-density survival/proliferation”. Moreover, the “survival and expansion at low density, single factors and two-factor combinations” value in the test with hES cells (50 μM (NE, ACh, Adenosine, GABA) or 10 μM (Y27632), 1000 cells/well, 5 days) is “effective survival and expansion”. In addition, in the test on hES cells (1000 cells/well), the “time after plating at which cell index rises above background / expansion detectable” value was “about 3 days” and the “lowest concentration that elicited an effect” value turned out to be 5 µM. For the same molecule, the “time to apparent confluence” value in the test with hES cells (70 μM, 1000 cells/well) was approximately 9 days. The “time to apparent confluence” value in the test on hES cells (100 μM, 1000 cells/well) is listed as approximately 10 days. In the test on hES cells (5, 10 and 50 μM, 1000 cells/well), the “time at which increases in cell index were first detected” value is given as approximately 6.5 days. Also, in the test with hES cells (HAI or HI background, 1000 cells/well), the “survival/expansion on addition of neurotransmitter” value was “substantially improved survival/expansion”. The survival/expansion result with hES cells (StemPro hESC SFM HI background) was “maximal survival/expansion”. In addition, in the test with hES cells (small molecules 50 μM, 1000 cells/well, growth factor combinations), the “rises in impedance / survival and expansion with neurotransmitters” value is “detected much earlier”. Moreover, the “colonies detected compared to StemPro hESC SFM medium alone” value in test [1] (50 μM, 200-10000 cells/well, 8 days) was “More than four times as many colonies”. The “fewest plated cells per well at which colonies were observed” value in test [1] (50 μM, 8 days) is listed as 1000 plated cells. The “support of colony formation at low density” value in test [1] (10^4 cells/well, StemPro hESC SFM, 7 days, compounds at 10 or 50 μM) was “supported elevated colony formation”.

`CC(=O)OCC[N+](C)(C)C` [ACh, acetylcholine]: in the test with hES cells (1000 cells/well), the “time after plating at which cell index rises above background / expansion detectable” value is given as “about 3 days” and the “lowest concentration that elicited an effect” value was 5 µM. In addition, the “fewest plated cells per well at which colonies were observed” value in test [1] (50 μM, 8 days) was 500 plated cells.
